For 21 compounds, IC50 results are on record in patent US7750003B2, “Compounds-943” (AstraZeneca AB, priority 2006, dated 2010).

This test concerns phosphorylation of Serine 473 in Akt in MDA-MB-468 human breast adenocarcinoma cells. Briefly: In vitro phospho-Ser473 Akt assay (Test (c)). The note with it: Homo sapiens, MDA-MB-468, 2 h, MDA-MB-468 cells, 2 hours incubation; read-out: Test (c): IC50 versus Serine 473 in Akt. In kind it is cell-based. As to the method: (c) In Vitro Phospho-Ser473 Akt Assay
This assay determines the ability of test compounds to inhibit phosphorylation of Serine 473 in Akt as assessed using Acumen Explorer technology (Acumen Bioscience Limited), a plate reader that can be used to rapidly quantitate features of images generated by laser-scanning.
A MDA-MB-468 human breast adenocarcinoma cell line (LGC Promochem, Teddington, Middlesex, UK, Catalogue No. HTB-132) was routinely maintained at 37° C. with 5% CO2 up to a confluency of 70-90% in DMEM containing 10% heat-inactivated FCS and 1% L-glutamine.
For the assay, the cells were detached from the culture flask using ‘Accutase’ (Innovative Cell Technologies Inc., San Diego, Calif., USA; Catalogue No. AT104) using standard tissue culture methods and resuspended in media to give 1.7×10^5 cells per mL. Aliquots (90 μl) were seeded into each of the inner 60 wells of a black Packard 96 well plate (PerkinElmer, Boston, Mass., USA; Catalogue No. 6005182) to give a density of 15000 cells per well. Aliquots (90 μl) of culture media were placed in the outer wells to prevent edge effects. The cells were incubated overnight at 37° C. with 5% CO2 to allow them to adhere.
On day 2, the cells were treated with test compounds and incubated for 2 hours at 37° C. with 5% CO2. Test compounds were prepared as 10 mM stock solutions in DMSO and serially diluted as required with growth media to give a range of concentrations that were 10-fold the required final test concentrations. Aliquots (10 μl) of each compound dilution were placed in a well (in triplicate) to give the final required concentrations. As a minimum response control, each plate contained wells having a final concentration of 100 μM LY294002 (Calbiochem, Beeston, UK, Catalogue No. 440202). As a maximum response control, wells contained 1% DMSO instead of test compound. Following incubation, the contents of the plates were fixed by treatment with a 1.6% aqueous formaldehyde solution (Sigma, Poole, Dorset, UK, Catalogue No. F1635) at room temperature for 1 hour.
All subsequent aspiration and wash steps were carried out using a Tecan 96 well plate washer (aspiration speed 10 mm/sec). The fixing solution was removed and the contents of the plates were washed with phosphate-buffered saline (PBS; 50 μl; Gibco, Catalogue No. 10010015). The contents of the plates were treated for 10 minutes at room temperature with an aliquot (50 μl) of a cell permeabilisation buffer consisting of a mixture of PBS and 0.5% Tween-20. The ‘permeabilisation’ buffer was removed and non-specific binding sites were blocked by treatment for 1 hour at room temperature of an aliquot (50 μl) of a blocking buffer consisting of 5% dried skimmed milk [‘Marvel’ (registered trade mark); Premier Beverages, Stafford, GB] in a mixture of PBS and 0.05% Tween-20. The ‘blocking’ buffer was removed and the cells were incubated for 1 hour at room temperature with rabbit anti phospho-Akt (Ser473) antibody solution (50 μl per well; Cell Signalling, Hitchin, Herts, U.K., Catalogue No 9277) that had been diluted 1:500 in ‘blocking’ buffer. Cells were washed three times in a mixture of PBS and 0.05% Tween-20. Subsequently, cells were incubated for 1 hour at room temperature with Alexafluor488 labelled goat anti-rabbit IgG (50 μl per well; Molecular Probes, Invitrogen Limited, Paisley, UK, Catalogue No. A11008) that had been diluted 1:500 in ‘blocking’ buffer. Cells were washed 3 times with a mixture of PBS and 0.05% Tween-20. An aliquot of PBS (50 μl) was added to each well and the plates were sealed with black plate sealers and the fluorescence signal was detected and analysed.
Fluorescence dose response data obtained with each compound were analysed and the degree of inhibition of Serine 473 in Akt was expressed as an IC50 value.
For the compound `CCNC(=O)Nc1ccc(-c2nc(N3CCOC[C@@H]3C)cc(C(C)(C)S(=O)(=O)C(C)(C)C)n2)cc1` [Example 66e, 3-ethyl-1-[4-[4-[(3S)-3-methylmorpholin-4-yl]-6-(2-tert-butylsulfonylpropan-2-yl)pyrimidin-2-yl]phenyl]urea], the IC50 stood at 260 nM.

With `C[C@H]1COCCN1c1cc(C(C)(C)S(C)(=O)=O)nc(-c2ccc(NC(=O)N3CC(O)C3)cc2)n1` [Example 24bf, 3-hydroxy-N-[4-[4-[(3S)-3-methylmorpholin-4-yl]-6-(2-methylsulfonylpropan-2-yl)pyrimidin-2-yl]phenyl]azetidine-1-carboxamide], the IC50 was found to be 6700 nM.

For `CCCNC(=O)Nc1ccc(-c2nc(N3CCOC[C@@H]3C)cc(C(C)(C)S(=O)(=O)C(C)C)n2)cc1` [Example 60q, 3-[4-[4-[(3S)-3-methylmorpholin-4-yl]-6-(2-propan-2-ylsulfonylpropan-2-yl)pyrimidin-2-yl]phenyl]-1-propyl-urea], the IC50 was determined as 160 nM. Regarding `CNC(=O)Nc1ccc(-c2nc(CS(=O)(=O)C3CC3)cc(N3CCOC[C@@H]3C)n2)cc1` [Example 57d, 1-[4-[4-(cyclopropylsulfonylmethyl)-6-[(3S)-3-methylmorpholin-4-yl]pyrimidin-2-yl]phenyl]-3-methyl-urea], the half-maximal inhibitory concentration (IC50) was found to be 840 nM. Next, `C[C@H]1COCCN1c1cc(CS(=O)(=O)C2CC2)nc(-c2ccc(NC(=O)Nc3cnn(C)c3)cc2)n1` [Example 57g, 1-[4-[4-(cyclopropylsulfonylmethyl)-6-[(3S)-3-methylmorpholin-4-yl]pyrimidin-2-yl]phenyl]-3-(1-methylpyrazol-4-yl)urea]: 95 nM; `C[C@H]1COCCN1c1cc(C(C)(C)S(C)(=O)=O)nc(-c2ccc(NC(=O)NCc3ccncc3)cc2)n1` [Example 24ar, 1-[4-[4-[(3S)-3-methylmorpholin-4-yl]-6-(2-methylsulfonylpropan-2-yl)pyrimidin-2-yl]phenyl]-3-(pyridin-4-ylmethyl)urea]: 49 nM. Next, `C[C@H]1COCCN1c1cc(C(C)(C)S(C)(=O)=O)nc(-c2ccc(NC(=O)NCc3ccn(C)n3)cc2)n1` [Example 24az, 1-[4-[4-[(3S)-3-methylmorpholin-4-yl]-6-(2-methylsulfonylpropan-2-yl)pyrimidin-2-yl]phenyl]-3-[(1-methylpyrazol-3-yl)methyl]urea]: 5600 nM; `C[C@H]1COCCN1c1cc(CS(=O)(=O)c2ccc(F)cc2)nc(-c2ccc(NC(=O)NC(C)(C)CO)cc2)n1` [Example 61d, 1-[4-[4-[(4-fluorophenyl)sulfonylmethyl]-6-[(3S)-3-methylmorpholin-4-yl]pyrimidin-2-yl]phenyl]-3-(1-hydroxy-2-methyl-propan-2-yl)urea]: 180 nM. In the case of `CC(C)S(=O)(=O)C(C)(C)c1cc(N2CCOC[C@@H]2C)nc(-c2ccc(NC(=O)NCCO)cc2)n1` [Example 60n, 3-(2-hydroxyethyl)-1-[4-[4-[(3S)-3-methylmorpholin-4-yl]-6-(2-propan-2-ylsulfonylpropan-2-yl)pyrimidin-2-yl]phenyl]urea], the IC50 was 150 nM.

In the case of `C[C@@H]1CN(C(=O)c2cc(N3CCOC[C@@H]3C)nc(-c3ccc(NC(=O)NC4CC4)cc3)n2)C[C@H](C)O1` [Example 63c, 3-cyclopropyl-1-[4-[4-[(2R,6S)-2,6-dimethylmorpholine-4-carbonyl]-6-[(3S)-3-methylmorpholin-4-yl]pyrimidin-2-yl]phenyl]urea], the IC50 worked out at 260 nM. On to `CCCNC(=O)Nc1ccc(-c2nc(CS(=O)(=O)C(C)C)cc(N3CCOC[C@@H]3C)n2)cc1` [Example 60a, 3-[4-[4-[(3S)-3-methylmorpholin-4-yl]-6-(propan-2-ylsulfonylmethyl)pyrimidin-2-yl]phenyl]-1-propyl-urea], for which the IC50 stood at 3300 nM. On to `CC(C)NC(=O)Nc1ccc(-c2nc(CS(=O)(=O)C(C)C)cc(N3CCOC[C@@H]3C)n2)cc1` [Example 60f, 1-[4-[4-[(3S)-3-methylmorpholin-4-yl]-6-(propan-2-ylsulfonylmethyl)pyrimidin-2-yl]phenyl]-3-propan-2-yl-urea], for which the IC50 worked out at 870 nM. Turning to `C[C@H]1COCCN1c1cc(C(=O)N2CCOCC2)nc(-c2ccc(NC(=O)NC3CC3)cc2)n1` [Example 63, 3-Cyclopropyl-1-[4-[4-[(3S)-3-methylmorpholin-4-yl]-6-(morpholine-4-carbonyl)pyrimidin-2-yl]phenyl]urea], the IC50 worked out at 410 nM.

With `CC(C)S(=O)(=O)Cc1cc(N2CCOC[C@@H]2C)nc(-c2ccc(NC(=O)Nc3ccc(C(F)(F)F)cc3)cc2)n1` [Example 60d, 1-[4-[4-[(3S)-3-methylmorpholin-4-yl]-6-(propan-2-ylsulfonylmethyl)pyrimidin-2-yl]phenyl]-3-[4-(trifluoromethyl)phenyl]urea], the half-inhibitory concentration (IC50) was determined as 590 nM.

For the compound `CC(C)S(=O)(=O)C(C)(C)c1cc(N2CCOC[C@@H]2C)nc(-c2ccc(NC(=O)NC(C)(C)CO)cc2)n1` [Example 60o, 3-(1-hydroxy-2-methyl-propan-2-yl)-1-[4-[4-[(3S)-3-methylmorpholin-4-yl]-6-(2-propan-2-ylsulfonylpropan-2-yl)pyrimidin-2-yl]phenyl]urea], the IC50 turned out to be 86 nM. Regarding `CC(C)CNC(=O)Nc1ccc(-c2nc(N3CCOC[C@@H]3C)cc(C(C)(C)S(C)(=O)=O)n2)cc1` [Example 24at, 1-[4-[4-[(3S)-3-methylmorpholin-4-yl]-6-(2-methylsulfonylpropan-2-yl)pyrimidin-2-yl]phenyl]-3-(2-methylpropyl)urea], the IC50 was 89 nM.

On to `C[C@H]1COCCN1c1cc(CS(=O)(=O)CCO)nc(-c2ccc(NC(=O)NC3CCC3)cc2)n1` [Example 59a, 3-cyclobutyl-1-[4-[4-(2-hydroxyethylsulfonylmethyl)-6-[(3S)-3-methylmorpholin-4-yl]pyrimidin-2-yl]phenyl]urea], for which the IC50 is 37 nM. On to `C[C@H]1COCCN1c1cc(C(C)(C)S(C)(=O)=O)nc(-c2ccc(NC(=O)N(C)C3CC3)cc2)n1` [Example 24bg, 1-cyclopropyl-1-methyl-3-[4-[4-[(3S)-3-methylmorpholin-4-yl]-6-(2-methylsulfonylpropan-2-yl)pyrimidin-2-yl]phenyl]urea], for which the IC50 amounted to 2400 nM. In the case of `C[C@H]1COCCN1c1cc(CS(=O)(=O)C23CC4CC(CC(C4)C2)C3)nc(-c2ccc(NC(=O)NC3CC3)cc2)n1` [Example 43k, 1-[4-[4-(1-adamantylsulfonylmethyl)-6-[(3S)-3-methylmorpholin-4-yl]pyrimidin-2-yl]phenyl]-3-cyclopropyl-urea], the IC50 was found to be 2900 nM. For `C[C@H]1COCCN1c1cc(C(C)(C)S(=O)(=O)C(C)(C)C)nc(-c2ccc(NC(=O)NCCN(C)C)cc2)n1` [Example 66f, 3-(2-dimethylaminoethyl)-1-[4-[4-[(3S)-3-methylmorpholin-4-yl]-6-(2-tert-butylsulfonylpropan-2-yl)pyrimidin-2-yl]phenyl]urea], the IC50 was found to be 40 nM.

Take `CC(C)S(=O)(=O)Cc1cc(N2CCOC[C@@H]2C)nc(-c2ccc(NC(=O)NCCCO)cc2)n1` [Example 60c, 3-(3-hydroxypropyl)-1-[4-[4-[(3S)-3-methylmorpholin-4-yl]-6-(propan-2-ylsulfonylmethyl)pyrimidin-2-yl]phenyl]urea]: the IC50 came out at 770 nM.
